From paper PMC7114565 (Virus Research, 2016)
“And” between values parts separate entries of the source, which are not always exact repeats. Equal values may be shown once. “Also recorded” adds a separate entry of the source.

Legend:
in vitro [1] = settings: mouse
MERS-CoV EMC/2012 [2] = test system: MERS-CoV EMC/2012
MERS-CoV EMC/2012 [3] = assay: microbe, parasite or virus in culture; settings: Middle East respiratory syndrome-related coronavirus, Huh-7, 48 h
[4] = test system: human coronavirus 229E (HCoV-229E); format: cell-based
[5] = test system: murine hepatitis virus (MHV; strain A59); format: cell-based
MERS-CoV EMC/2012 [6] = format: cell-based
SARS-CoV = format: cell-based
in vitro [7] = settings: rhesus monkey
HCoV-NL63 = settings: cited from earlier work

| SMILES | viability (in vitro [1]) [%] | CC50 values times higher than the observed EC50 values (MERS-CoV EMC/2012 [2]) | EC50 (MERS-CoV EMC/2012 [3]) [µM] | reduction of HCoV-229E production [4] | decrease of MHV progeny titers [5] [log] | reduction of MHV progeny titers [5] [log] | decrease in MERS-CoV progeny titer (MERS-CoV EMC/2012 [6]) | reduction of MERS-CoV progeny titer (MERS-CoV EMC/2012 [6]) [log] | effect on SARS-CoV infection (SARS-CoV) | reduction in SARS-CoV virus progeny (SARS-CoV) [log] | CC50 (in vitro [7]) [µM] | EC50 (HCoV-NL63) [nM] | reduction in HCoV-NL63 virus progeny (HCoV-NL63) [log] | effect on cell viability (LLC-MK2 cells) |
| --- | --- | --- | --- | --- | --- | --- | --- | --- | --- | --- | --- | --- | --- | --- |
| C/C=C/C[C@@H](C)[C@@H](O)[C@H]1C(=O)N[C@@H](CC)C(=O)N(C)[C@H](C)C(=O)N(CC)[C@@H](C(C)C)C(=O)N[C@@H](C(C)C)C(=O)N(C)[C@@H](CC(C)C)C(=O)N[C@@H](C)C(=O)N[C@H](C)C(=O)N(C)[C@@H](CC(C)C)C(=O)N(C)[C@@H](CC(C)C)C(=O)N(C)[C@@H](C(C)C)C(=O)N1C [ALV, alisporivir] | > 85 | 7–13 times | 3.4 ± 1 | ~1.5 log and ~2 log | 1 | ~2 | comparable decrease in progeny titer | ~2 | sensitive; also recorded: near-complete block | ~1.5 | 14.3 ± 1.8 | 800 | 4 | – |
| NC(=O)c1ncn([C@@H]2O[C@H](CO)[C@@H](O)[C@H]2O)n1 [ribavirin] | – | – | – | – | – | – | – | – | – | – | – | – | – | gradually lowered the cell viability |
